According to PubChem BioAssay (NCI):
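In this assay, cells in 96-well plates receive the compound at five concentrations for 48 hours. Endpoints are linearly interpolated between the surrounding concentrations. GI50 marks 50% less growth. The concentration for full growth arrest is given as TGI.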

Legend:
Assay in all cases: NCI-60 cell line screen, 48 h
[1] = test system: OVCAR-8 ovarian
[2] = test system: MOLT-4 leukemia
[3] = test system: T-47D breast
[4] = test system: 786-0 renal
[5] = test system: HT29 colon
[6] = test system: A549 NSCLC
[7] = test system: ACHN renal
[8] = test system: HS 578T breast
[9] = test system: HCC-2998 colon
[10] = test system: HL-60(TB) leukemia

SMILES | GI50 [1] [µM] | TGI [1] [µM] | GI50 [2] [µM] | TGI [2] [µM] | GI50 [3] [µM] | TGI [3] [µM] | GI50 [4] [µM] | TGI [4] [µM] | GI50 [5] [µM] | TGI [5] [µM] | GI50 [6] [µM] | TGI [6] [µM] | GI50 [7] [µM] | TGI [7] [µM] | GI50 [8] [µM] | TGI [8] [µM] | GI50 [9] [µM] | TGI [9] [µM] | GI50 [10] [µM] | TGI [10] [µM]
C=C1CO[C@@H]2C[C@@H]1CC/C(C)=C/CC/C(C)=C/CC[C@@]2(C)O | 20.9 | 44.8 | 1.26 | 12.4 | 18.3 | 42.8 | 17.5 | 32.9 | 28.4 | 94.1 | 15.4 | 33 | 18.8 | 34 | 25.7 | > 83.4 | 18.3 | 36.4 | 1.17 | 11.2
c1cnc2c(c1)Nc1cnncc1S2 | – | > 100 | – | > 100 | – | > 100 | – | > 100 | – | > 100 | – | > 100 | – | > 100 | – | > 100 | – | > 100 | – | > 100
C[C@@H]1CN2[C@H]3[C@@H]1CC[C@]31CCC(=O)O[C@]1(C)[C@@H]1CC[C@H]3CCC=C3[C@@H]12 | > 70 | > 70 | > 70 | > 70 | > 70 | > 70 | > 70 | > 70 | > 70 | > 70 | > 70 | > 70 | > 70 | > 70 | > 70 | > 70 | > 70 | > 70 | > 70 | > 70
